This note sets out measurements from US9353082B2, “Pharmaceutical compounds” (BIAL—PORTELA & CA, S.A., priority 2008, dated 2016).

Assay [1] deals with T1, FAAH (Mus musculus, UniProt O08914).
T1 construct: A fragment of liver, left lung lobe and brain without cerebellum were removed; from tissue; host or cells: male NMRI mice; brain (without cerebellum) and liver homogenates
T1 sequence (O08914 1-579): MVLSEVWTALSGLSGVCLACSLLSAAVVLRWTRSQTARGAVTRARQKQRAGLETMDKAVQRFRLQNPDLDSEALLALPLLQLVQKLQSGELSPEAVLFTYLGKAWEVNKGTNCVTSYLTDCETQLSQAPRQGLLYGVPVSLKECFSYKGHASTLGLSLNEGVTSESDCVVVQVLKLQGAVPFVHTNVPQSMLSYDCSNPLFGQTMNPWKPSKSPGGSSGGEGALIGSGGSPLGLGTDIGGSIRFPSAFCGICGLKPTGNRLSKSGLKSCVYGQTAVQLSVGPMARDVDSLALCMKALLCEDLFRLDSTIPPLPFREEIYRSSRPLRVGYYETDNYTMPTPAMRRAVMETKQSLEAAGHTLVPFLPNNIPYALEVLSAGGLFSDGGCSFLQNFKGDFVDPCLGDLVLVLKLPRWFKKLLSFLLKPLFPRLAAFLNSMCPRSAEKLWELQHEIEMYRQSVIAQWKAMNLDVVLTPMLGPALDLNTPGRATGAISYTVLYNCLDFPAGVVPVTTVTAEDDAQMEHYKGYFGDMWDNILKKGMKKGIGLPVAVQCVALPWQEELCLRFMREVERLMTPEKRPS
Description: In vivo FAAH inhibition after oral dosing, remaining activity in liver homogenate (LVh, peripheral tissue). The conditions noted are these: liver homogenate, low value = strong inhibitor; for In Vivo LVh 3 mg · kg · 8 h (remaining FAAH activity): 3 mg/kg oral; for In Vivo LVh 3 mg·kg 8 h (remaining FAAH activity, % of control): 8 h after dosing. Also noted: species or system NMRI mice. The method in brief: (§1)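 Remaining FAAH activity is given as % of vehicle-treated controls after blank subtraction, measured by radiolabelled AEA hydrolysis (2 μM AEA, 5 nM 3H-AEA, 37 °C) in brain (10 min) or liver (7 min) homogenates. These came from fasted male NMRI mice dosed orally at 30 or 3 mg/kg.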

Assay [2] has as its target T1, FAAH. Description: In vivo FAAH inhibition after oral dosing, remaining activity in brain homogenate (BRh, central nervous tissue). Set-up: species or system NMRI mice. The settings on record: brain homogenate, low value = strong inhibitor; for In Vivo BRh 3 mg · kg · 8 h (remaining FAAH activity): 3 mg/kg oral; for In Vivo BRh 3 mg·kg 8 h (remaining FAAH activity, % of control): 8 h after dosing. The method in brief: as §1

Consider `CCN1CCC(N(C)C(=O)n2cnc(-c3cccc([N+](=O)[O-])c3)c2)CC1` [Compound no. 509, N-(1-ethylpiperidin-4-yl)-N-methyl-4-(3-nitrophenyl)-1H-imidazole-1-carboxamide], for which the “In Vivo LVh 3 mg · kg · 8 h (remaining FAAH activity)” value on FAAH [1] is 17.2 % of control. The “In Vivo BRh 3 mg · kg · 8 h (remaining FAAH activity)” value at FAAH [2] is on record as 78.3 % of control.
Regarding `CN(C(=O)n1cnc(-c2ccc(O)c([N+](=O)[O-])c2)c1)C1CCOCC1` [Compound no. 494, 4-(4-hydroxy-3-nitrophenyl)-N-methyl-N-(tetrahydro-2H-pyran-4-yl)-1H-imidazole-1-carboxamide], the “In Vivo LVh 3 mg · kg · 8 h (remaining FAAH activity)” value on FAAH [1] was 22.9 % of control. The “In Vivo BRh 3 mg · kg · 8 h (remaining FAAH activity)” value on FAAH [2] is on record as 48.9 % of control.
Take `COc1cc(-c2cn(C(=O)N(C)C3CCCC3)cn2)ccc1F` [Compound 321, N-cyclopentyl-4-(4-fluoro-3-methoxyphenyl)-N-methyl-1H-imidazole-1-carboxamide]: the “In Vivo LVh 3 mg·kg 8 h (remaining FAAH activity, % of control)” value on FAAH [1] was 1.2 % of control. Also, the “In Vivo BRh 3 mg·kg 8 h (remaining FAAH activity, % of control)” value at FAAH [2] was 1.4 % of control.
The like results for `COc1ccc(-c2cn(C(=O)N(C)C3CCNCC3)cn2)cc1N` [Compound no. 450, 4-(3-amino-4-methoxyphenyl)-N-methyl-N-(piperidin-4-yl)-1H-imidazole-1-carboxamide] were, in that order, 65.4 % of control and 114.2 % of control.
As for `CN(C(=O)n1cnc(-c2ccccc2)c1)C1CCNCC1.Cl` [Compound no. 504, N-methyl-4-phenyl-N-(piperidin-4-yl)-1H-imidazole-1-carboxamide hydrochloride], the “In Vivo LVh 3 mg · kg · 8 h (remaining FAAH activity)” value on FAAH [1] is reported as 51.2 % of control. The “In Vivo BRh 3 mg · kg · 8 h (remaining FAAH activity)” value at FAAH [2] is 112.5 % of control.
Consider `Br.CCN1CCC(N(C)C(=O)n2cnc(-c3ccc(F)c(O)c3)c2)CC1` [Compound 561, N-(1-ethylpiperidin-4-yl)-4-(4-fluoro-3-hydroxyphenyl)-N-methyl-1H-imidazole-1-carboxamide hydrobromide], for which, on FAAH [1], the “In Vivo LVh 3 mg · kg · 8 h (remaining FAAH activity)” value is recorded as 78.6 % of control. For the same compound, the “In Vivo BRh 3 mg · kg · 8 h (remaining FAAH activity)” value on FAAH [2] is listed as 82.2 % of control.
With `CN(C(=O)n1cnc(-c2ccc(S(=O)(=O)N3CCC(OCc4ccccc4)CC3)cc2)c1)C1CCCCC1` [Compound no. 415, 4-(4-(4-(benzyloxy)piperidin-1-ylsulfonyl)phenyl)-N-cyclohexyl-N-methyl-1H-imidazole-1-carboxamide], the “In Vivo LVh 3 mg·kg 8 h (remaining FAAH activity, % of control)” value at FAAH [1] was 95.4 % of control. In addition, the “In Vivo BRh 3 mg·kg 8 h (remaining FAAH activity, % of control)” value on FAAH [2] is 109.1 % of control.
With `COc1ccc(-c2cn(C(=O)N(C)C3CCNCC3)cn2)cc1` [Compound no. 501, 4-(4-methoxyphenyl)-N-methyl-N-(piperidin-4-yl)-1H-imidazole-1-carboxamide], the “In Vivo LVh 3 mg · kg · 8 h (remaining FAAH activity)” value at FAAH [1] is recorded as 67.4 % of control. Moreover, the “In Vivo BRh 3 mg · kg · 8 h (remaining FAAH activity)” value on FAAH [2] is recorded as 108.5 % of control.
For `CN(C(=O)n1cnc(-c2ccc(O)c(C(N)=O)c2)c1)C1CCCCC1` [Compound no. 499, 4-(3-carbamoyl-4-hydroxyphenyl)-N-cyclohexyl-N-methyl-1H-imidazole-1-carboxamide] the same measures were 44.1 % of control and 120.6 % of control.
On to `CN(C(=O)n1nnc2ccccc21)C1CCN(Cc2ccccc2)CC1.Cl` [Compound no. 492, N-(1-benzylpiperidin-4-yl)-N-methyl-1H-benzo[d][1,2,3]triazole-1-carboxamide hydrochloride], for which, on FAAH [1], the “In Vivo LVh 3 mg·kg 8 h (remaining FAAH activity, % of control)” value was 0.7 % of control. For the same compound, the “In Vivo BRh 3 mg·kg 8 h (remaining FAAH activity, % of control)” value at FAAH [2] is on record as 0.9 % of control.
Turning to `CN(C(=O)n1cnc(-c2ccc(O)c(F)c2)c1)C1CCOCC1` [Compound no. 495, 4-(3-fluoro-4-hydroxyphenyl)-N-methyl-N-(tetrahydro-2H-pyran-4-yl)-1H-imidazole-1-carboxamide], the “In Vivo LVh 3 mg · kg · 8 h (remaining FAAH activity)” value at FAAH [1] is given as 2.3 % of control. The “In Vivo BRh 3 mg · kg · 8 h (remaining FAAH activity)” value on FAAH [2] is given as 2.1 % of control.
Regarding `Br.CN(C(=O)n1cnc(-c2ccc(O)c([N+](=O)[O-])c2)c1)C1CCN(Cc2ccccc2)CC1` [Compound no. 457, N-(1-benzylpiperidin-4-yl)-4-(4-hydroxy-3-nitrophenyl)-N-methyl-1H-imidazole-1-carboxamide hydrobromide], the “In Vivo LVh 3 mg·kg 8 h (remaining FAAH activity, % of control)” value on FAAH [1] was 10.6 % of control. The “In Vivo BRh 3 mg·kg 8 h (remaining FAAH activity, % of control)” value at FAAH [2] is listed as 28.1 % of control.
As to `COc1ccc(-c2cn(C(=O)N3COCC3(C)C)cn2)cc1N` [Compound no. 356, (4-(3-amino-4-methoxyphenyl)-1H-imidazol-1-yl)(4,4-dimethyloxazolidin-3-yl)methanone], the “In Vivo LVh 3 mg·kg 8 h (remaining FAAH activity, % of control)” value at FAAH [1] is on record as 9.4 % of control. Moreover, the “In Vivo BRh 3 mg·kg 8 h (remaining FAAH activity, % of control)” value at FAAH [2] was 6.5 % of control.
The like results for `CN(C(=O)n1cnc(-c2ccc(/C(N)=N/O)cc2)c1)C1CCCCC1` [Compound no. 406, (Z)—N-cyclohexyl-4-(4-(N′-hydroxycarbamimidoyl)phenyl)-N-methyl-1H-imidazole-1-carboxamide] were, in that order, 16.3 % of control and 66.8 % of control.
For `CN(C(=O)n1cnc(-c2ccc(NCc3ccccc3)c([N+](=O)[O-])c2)c1)C1CCCCC1` [Compound no. 425, 4-(4-(benzylamino)-3-nitrophenyl)-N-cyclohexyl-N-methyl-1H-imidazole-1-carboxamide] the same measures were 104.6 % of control and 111.4 % of control.
Consider `CN(C(=O)n1cnc(-c2cccnc2)c1)C1CCN(S(C)(=O)=O)CC1` [Compound no. 533, N-methyl-N-(1-(methylsulfonyl)piperidin-4-yl)-4-(pyridin-3-yl)-1H-imidazole-1-carboxamide], for which the “In Vivo LVh 3 mg · kg · 8 h (remaining FAAH activity)” value at FAAH [1] is recorded as 0.2 % of control. Moreover, the “In Vivo BRh 3 mg · kg · 8 h (remaining FAAH activity)” value on FAAH [2] is listed as 12 % of control.
The like results for `CN(C(=O)n1cnc(-c2cccnc2)c1)C1CCN(CC(=O)O)CC1` [Compound 558, 2-(4-(N-methyl-4-(pyridin-3-yl)-1H-imidazole-1-carboxamido)piperidin-1-yl)acetic acid] were, in that order, 91.1 % of control and 83.1 % of control.
In the case of `CN(C(=O)n1cnc(-c2cccc(-c3ccccc3)c2)c1)C12CC3CC(CC(C3)C1)C2` [Compound 290, 4-biphenyl-3-yl-N-methyl-N-tricyclo[3.3.1.13,7]dec-1-yl-1H-imidazole-1-carboxamide], on FAAH [1], the “In Vivo LVh 3 mg·kg 8 h (remaining FAAH activity, % of control)” value was 112.4 % of control. In addition, on FAAH [2], the “In Vivo BRh 3 mg·kg 8 h (remaining FAAH activity, % of control)” value is recorded as 115 % of control.
The like results for `CN(C(=O)n1cnc(-c2ccc3c(c2)[nH]c(=O)n3Cc2ccccc2)c1)C1CCCCC1` [Compound no. 426, 4-(1-benzyl-2-oxo-2,3-dihydro-1H-benzo[d]imidazol-5-yl)-N-cyclohexyl-N-methyl-1H-imidazole-1-carboxamide] were, in that order, 115.8 % of control and 96.9 % of control.
As for `CCN1CCC(N(C)C(=O)n2cnc(-c3ccc(OC)c(F)c3)c2)CC1` [Compound no. 503, N-(1-ethylpiperidin-4-yl)-4-(3-fluoro-4-methoxyphenyl)-N-methyl-1H-imidazole-1-carboxamide], the “In Vivo LVh 3 mg · kg · 8 h (remaining FAAH activity)” value on FAAH [1] was 25.1 % of control. Moreover, the “In Vivo BRh 3 mg · kg · 8 h (remaining FAAH activity)” value at FAAH [2] is recorded as 78.8 % of control.
